Numbered stars: 1 amine (or outer) side, 2 acyl side, 3 side chain; on linkers, the order of the positions; unused ones are H or OH. Bridge positions count the residues as written; N and C are the ends. Square brackets hold non-standard residues; d marks the D form. Peptide text beside a SMILES is read from it. * marks the point of attachment. hPhe(3-Cl-4-CF3) = N[C@@H](CCc1ccc(C(F)(F)F)c(Cl)c1)C(=O)O; hPhe(3-F,4-CF3) = N[C@@H](CCc1ccc(C(F)(F)F)c(F)c1)C(=O)O; NMePhe(4-Me) = CN[C@@H](Cc1ccc(C)cc1)C(=O)O; NMedβ3hAla = C[C@H](CC(=O)[*:2])N(C)[*:1]; NMeAla(cPent) = CN[C@@H](CC1CCCC1)C(=O)O; NMeGly(cPent) = CN[C@H](C(=O)O)C1CCCC1; NMe3Pal = CN[C@@H](Cc1cccnc1)C(=O)O; NMeCha = CN[C@@H](CC1CCCCC1)C(=O)O; NMeAhp(2) = CCCCC[C@H](NC)C(=O)O; NMeChg = CN[C@H](C(=O)O)C1CCCCC1; NMeI = CC[C@H](C)[C@H](NC)C(=O)O; NMeD = CN[C@@H](CC(=O)O)C(=O)O; NMeL = CN[C@@H](CC(C)C)C(=O)O; NMeNva = CCC[C@H](NC)C(=O)O; NMeV = CN[C@H](C(=O)O)C(C)C; d(β3hA) = C[C@@H](N)CC(=O)O; NMeC = CN[C@@H](CS)C(=O)O; Morpholide = C1CN(*)CCO1; NMeA = CN[C@@H](C)C(=O)O; Piperidide = C1CCN(*)CC1; Pyrrolidide = C1CCN(*)C1; dNMeA = CN[C@H](C)C(=O)O; Ac5c = NC1(C(=O)O)CCCC1; Aze = O=C(O)[C@@H]1CCN1; Ac3c = NC1(C(=O)O)CC1; Sar = CNCC(=O)O
Assays:
[1] = target: protein-protein interaction between Kras and SOS1 (biotin-tagged human Kras loaded with GDP, His-tagged human SOS1) (Homo sapiens (Human), UniProt P01116, G12D); assay: Protein-protein interaction inhibition between Kras and SOS1 (KrasG12D-SOS PPI) using AlphaScreen; format: biochemical; conditions: AlphaScreen; biotin-tagged human Kras loaded with GDP, His-tagged human SOS1; read-out: KRAS G12D-SOS PPI IC50;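 further: kras produced in E. coli, Ni-coupled donor beads and streptavidin acceptor beads, excitation 680 nm with emission detected at 520–620 nm via singlet oxygen transfer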
[2] = test system: Human pancreatic cancer cell line AsPC-1 (G12D mutation Kras); assay: AsPC-1 cell growth inhibition (AsPC-1 CGI); format: cell-based; conditions: read-out: AsPC-1 cell growth inhibition, 50% growth inhibitory concentration (IC50 value); 96 hours, CellTiter-Glo, values classified in ranges

| SMILES | IC50 [1] [nM] | IC50 [2] [nM] |
| --- | --- | --- |
| CC[C@H](C)[C@@H]1NC(=O)[C@H](CC(C)C)N(C)C(=O)C[C@@H](C)N(C)C(=O)[C@H]([C@@H](C)CC)N(C)C(=O)C2(CCCC2)NC(=O)[C@@H]2CCCN2C(=O)[C@H](CCc2ccc(C(F)(F)F)c(Cl)c2)NC(=O)CN(C)C(=O)[C@H](Cc2ccc(C)cc2)N(C)C(=O)[C@@H]2CCN2C(=O)[C@H](C)N(C)C1=O [Compound 1793] (cyclo([Ac5c][NMeI][NMedβ3hAla][NMeL]I[NMeA][Aze][NMePhe(4-Me)][Sar][hPhe(3-Cl-4-CF3)]P)) | 1.9 | ≤ 20 |
| CCC[C@H]1C(=O)N[C@@H]([C@@H](C)CC)C(=O)N(C)CC(=O)N(C)CC(=O)N(C)[C@@H](CC2CCCC2)C(=O)N(C)CC(=O)N[C@@H](CCc2ccc(C(F)(F)F)c(Cl)c2)C(=O)N(C)[C@@H](Cc2cccnc2)C(=O)NC2(CCCC2)C(=O)N(C)[C@@H](C2CCCCC2)C(=O)N(C)[C@H](C(=O)N2CCCC2)CC(=O)N1C [Compound 1946] ([NMeNva]I[Sar][Sar][NMeAla(cPent)][Sar][hPhe(3-Cl-4-CF3)][NMe3Pal][Ac5c][NMeChg][NMeD]-Pyrrolidide; lactam N-11) | 1.5 | > 500 |
| CCCCC[C@H]1C(=O)N[C@@H]([C@@H](C)CC)C(=O)N[C@@H](C)C(=O)N2CC[C@H]2C(=O)N(C)[C@@H](CC2CCCCC2)C(=O)N(C)CC(=O)N[C@@H](CCc2ccc(C(F)(F)F)c(F)c2)C(=O)N2CCC[C@H]2C(=O)NC2(CCCC2)C(=O)N(C)[C@@H](C2CCCC2)C(=O)N(C)[C@H](C(=O)N(C)C)CC(=O)N1C [Compound 1117] ([NMeAhp(2)]IA[Aze][NMeCha][Sar][hPhe(3-F,4-CF3)]P[Ac5c][NMeGly(cPent)][NMeD]-NMe2; lactam N-11) | 2.2 | ≤ 20 |
| CC[C@H](C)[C@@H]1NC(=O)[C@H](CC(C)C)N(C)C(=O)C[C@@H](C(=O)N(C)C)N(C)C(=O)[C@H](C2CCCC2)N(C)C(=O)[C@H](C(C)C)NC(=O)[C@@H]2CCCN2C(=O)[C@H](CCc2ccc(C(F)(F)F)c(Cl)c2)NC(=O)CN(C)C(=O)[C@H](CC2CCCCC2)N(C)C(=O)[C@@H]2CCN2C(=O)[C@H](C)N(C)C1=O [Compound 1010] ([NMeL]I[NMeA][Aze][NMeCha][Sar][hPhe(3-Cl-4-CF3)]PV[NMeGly(cPent)][NMeD]-NMe2; lactam N-11) | 4.3 | > 500 |
| CC[C@H](C)[C@@H]1NC(=O)[C@H](CC(C)C)N(C)C(=O)C[C@@H](C(=O)N2CCCCC2)N(C)C(=O)[C@H](C(C)C)N(C)C(=O)C2(CC2)NC(=O)[C@@H]2CCCN2C(=O)[C@H](CCc2ccc(C(F)(F)F)c(Cl)c2)NC(=O)CN(C)C(=O)[C@H](CC2CCCCC2)N(C)C(=O)[C@@H]2CCN2C(=O)[C@H](C)N(C)C1=O [Compound 1695] ([NMeL]I[NMeA][Aze][NMeCha][Sar][hPhe(3-Cl-4-CF3)]P[Ac3c][NMeV][NMeD]-Piperidide; lactam N-11) | 8 | > 500 |
| CC[C@H](C)[C@@H]1NC(=O)[C@H](C)N(C)C(=O)C[C@@H](C)NC(=O)[C@H](C2CCCC2)N(C)C(=O)C2(CCCC2)NC(=O)[C@@H]2CCCN2C(=O)[C@H](CCc2ccc(C(F)(F)F)c(Cl)c2)NC(=O)[C@@H](C)N(C)C(=O)[C@H](CC2CCCCC2)N(C)C(=O)[C@@H]2CCN2C(=O)CN(C)C1=O [Compound 1539] (cyclo([Ac5c][NMeGly(cPent)][d(β3hA)][NMeA]I[Sar][Aze][NMeCha][dNMeA][hPhe(3-Cl-4-CF3)]P)) | 54 | > 500 |
| CC[C@H](C)[C@@H]1NC(=O)[C@H](CC(C)C)N(C)C(=O)CSC[C@@H](C(=O)N(C)C)N(C)C(=O)[C@H](C2CCCC2)N(C)C(=O)C2(CCCC2)NC(=O)[C@@H]2CCCN2C(=O)[C@H](CCc2ccc(C(F)(F)F)c(Cl)c2)NC(=O)CN(C)C(=O)[C@H](CC2CCCCC2)N(C)C(=O)CN(C)C(=O)CN(C)C1=O [Compound 2175] ({CH2CO}-[NMeL]I[Sar][Sar][NMeCha][Sar][hPhe(3-Cl-4-CF3)]P[Ac5c][NMeGly(cPent)][NMeC]-NMe2; thioether N-11) | 180 | > 500 |
| CC[C@H](C)[C@@H]1NC(=O)[C@H](CC(C)C)N(C)C(=O)C[C@@H](C(=O)N2CCOCC2)N(C)C(=O)[C@H]([C@@H](C)CC)N(C)C(=O)C2(CCCC2)NC(=O)[C@@H]2CCCN2C(=O)[C@H](CCc2ccc(C(F)(F)F)c(Cl)c2)NC(=O)CN(C)C(=O)[C@H](CC2CCCCC2)N(C)C(=O)[C@@H]2CCN2C(=O)[C@H](C)N(C)C1=O [Compound 40] ([NMeL]I[NMeA][Aze][NMeCha][Sar][hPhe(3-Cl-4-CF3)]P[Ac5c][NMeI][NMeD]-Morpholide; lactam N-11) | 0.96 | ≤ 20 |
| CC[C@H](C)[C@@H]1NC(=O)[C@H](CC(C)C)N(C)C(=O)C[C@@H](C)N(C)C(=O)[C@H](C2CCCC2)N(C)C(=O)C2(CCCC2)NC(=O)[C@@H]2CCCN2C(=O)[C@H](CCc2ccc(C(F)(F)F)c(Cl)c2)NC(=O)CN(C)C(=O)[C@H](Cc2ccc(C)cc2)N(C)C(=O)[C@@H]2CCN2C(=O)[C@H](C)N(C)C1=O [Compound 1750] (cyclo([Ac5c][NMeGly(cPent)][NMedβ3hAla][NMeL]I[NMeA][Aze][NMePhe(4-Me)][Sar][hPhe(3-Cl-4-CF3)]P)) | 1.3 | ≤ 20 |

Source: US20240148821A1, “PHARMACEUTICAL USE OF CYCLIC PEPTIDE COMPOUND” (CHUGAI SEIYAKU KABUSHIKI KAISHA, priority 2021, published 2024)
